For experiment [1], the system named is clinically relevant pathogens. The experiment is described as follows: In vitro antifungal activity, agar plate MIC determination. The experiment is classed as cell-based. To be noted: Candida albicans. The method, then: The in vitro evaluation of the anti-fungal activity of compounds of the invention can be performed by determining the minimum inhibitory concentration (MIC) which is the concentration of the test compound in a suitable medium at which growth of a particular microorganism fails to occur.
[¹⁴C] Squalene was separated from unreacted substrate on thin layer chromatography plates and determined by liquid scintillation counting. Inhibition of squalene synthase was quantified by incubating rat liver homogenate with various concentrations of the test compound in the presence of [2-¹⁴C] farnesylpyrophosphate. The concentration of compound giving 50% inhibition of [¹⁴C] squalene production in a 30 minute assay was taken as the IC₅₀ value. […] In practice, a series of agar plates, each having the test compound incorporated at a particular concentration, was inoculated with a standard culture of a clinically relevant pathogen, for example Candida albicans, and each plate was then incubated at 37 °C for 24 to 48 hours depending on the pathogen.

The target of experiment [2] is T1, squalene synthase (Rattus norvegicus, UniProt Q02769).
T1 construct: from tissue; host or cells: rat liver homogenate
T1 sequence (Q02769 1-416): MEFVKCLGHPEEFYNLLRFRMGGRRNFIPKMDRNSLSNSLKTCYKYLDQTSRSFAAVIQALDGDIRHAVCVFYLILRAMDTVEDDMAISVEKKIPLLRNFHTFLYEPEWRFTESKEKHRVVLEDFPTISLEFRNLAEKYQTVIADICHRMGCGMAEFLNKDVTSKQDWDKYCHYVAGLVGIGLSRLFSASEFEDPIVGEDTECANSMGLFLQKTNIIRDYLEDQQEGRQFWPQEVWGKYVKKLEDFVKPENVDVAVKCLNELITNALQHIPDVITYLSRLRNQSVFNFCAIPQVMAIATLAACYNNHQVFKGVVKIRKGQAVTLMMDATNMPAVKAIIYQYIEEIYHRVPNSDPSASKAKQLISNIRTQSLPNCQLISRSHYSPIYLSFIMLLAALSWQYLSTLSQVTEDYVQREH
The experiment is described as follows: Inhibition of squalene synthase ([14C]squalene production from [2-14C]farnesylpyrophosphate). The experiment is classed as biochemical. An excerpt:
A. Biller et al. in J. […] [¹⁴C]squalene is separated from unreacted substrate on thin layer chromatography plates and determined by liquid scintillation counting. […] Acta, Volume 877, 50-60 (1986) and modified to include measurement of cholesterol by high performance liquid chromatography (h.p.l.c.). […] A. […] [¹⁴C] Squalene was separated from unreacted substrate on thin layer chromatography plates and determined by liquid scintillation counting. Inhibition of squalene synthase was quantified by incubating rat liver homogenate with various concentrations of the test compound in the presence of [2-¹⁴C] farnesylpyrophosphate. The concentration of compound giving 50% inhibition of [¹⁴C] squalene production in a 30 minute assay was taken as the IC₅₀ value.

Where [3] appears, read: rat liver homogenate, [2-¹⁴C] farnesylpyrophosphate as substrate, 50% inhibition of [¹⁴C] squalene production in a 30 minute assay, read-out: IC₅₀.

Values after ≈ are worked out from the molar mass of the structure shown. Counter-ions that a name gives are not always drawn. Like-named read-outs stand apart in the source and are kept apart here. A value given as a limit tells only on which side of the number the result lay.

As usually defined, the MIC is the lowest concentration found to suppress growth. `C=C(CC[C@]12O[C@H](C(=O)O)[C@@](O)(C(=O)O)[C@](C(=O)O)(O1)[C@H](OC(=O)CCCC1CCCCC1)[C@H]2O)[C@@H](OC(C)=O)[C@H](C)Cc1ccccc1` (relative stereo) [Example 41, [1S-[1α(4R*,5S*),3α,4β,5α,6α,7β]] 1-(4-Acetyloxy-5-methyl-3-methylene-6-phenylhexyl)-4,6,7-trihydroxy-2,8-dioxabicyclo[3.2.1]octane-3,4,5-tricarboxylic acid, 6-(4-cyclohexylbutanoate)]: the MIC in experiment [1] was 0.1 to 31 µg/mL (≈ 0.145 to 44.9 µM). For the same compound, the IC50 in experiment [2] was less than 100 nM.

In experiment [1], `C=C(CC[C@]12O[C@H](C(=O)O)[C@@](O)(C(=O)O)[C@](C(=O)O)(O1)[C@H](OC(=O)CCCCCCC)[C@H]2O)[C@@H](OC(C)=O)[C@H](C)Cc1ccccc1` (relative stereo) [Example 31, [1S-[1α(4R*,5S*),3α,4β,5α,6α,7β]] 1-(4-Acetyloxy-5-methyl-3-methylene-6-phenylhexyl)-4,6,7-trihydroxy-2,8-dioxabicyclo[3.2.1]octane-3,4,5-tricarboxylic acid, 6-octanoate] came in with an MIC of 0.1 to 31 µg/mL (≈ 0.15 to 46.6 µM). Moreover, the IC50 in experiment [2] is less than 100 nM. In turn, `C=C(CC[C@]12O[C@H](C(=O)O)[C@@](O)(C(=O)O)[C@](C(=O)O)(O1)[C@H](OC(=O)CCCCCCc1ccccc1)[C@H]2O)[C@@H](OC(C)=O)[C@H](C)Cc1ccccc1` (relative stereo) [Example 39, [1S-[1α(4R*,5S*)3α,4β,5α,6α,7β]] 1-(4-Acetyloxy-5-methyl-3-methylene-6-phenylhexyl)-4,6,7-trihydroxy-2,8-dioxabicyclo[3.2.1]octane-3,4,5-tricarboxylic acid, 6-(7-phenylheptanoate)] showed an MIC in experiment [1] of 0.1 to 31 µg/mL (≈ 0.138 to 42.7 µM). In experiment [2], this compound showed an IC50 of less than 100 nM.

For `CC[C@H](C)C[C@H](C)CCC(=O)O[C@@H]1[C@@H](O)[C@@]2(CCC(C)[C@@H](O)[C@H](C)Cc3ccccc3)O[C@H](C(=O)O)[C@@](O)(C(=O)O)[C@]1(C(=O)O)O2` (relative stereo) [Example 13, [1S-[1α(3R*S*,4S*,5S*),3α,4β,5α,6α(4S*,6R*),7β]] 1-(3,5-Dimethyl-4-hydroxy-6-phenylhexyl)-4,6,7-trihydroxy-2,8-dioxabicyclo[3.2.1]octane-3,4,5-tricarboxylic acid, 6-(4,6-dimethyloctanoate)], the MIC in experiment [1] is 0.1 to 31 µg/mL (≈ 0.153 to 47.5 µM). The compound `C=C(CCC12OC(C(=O)O)C(O)(C(=O)O)C(C(=O)O)(O1)C(OC(=O)C=CC(C)CC(C)CC)C2OC(=O)OC)C(OC(C)=O)C(C)Cc1ccccc1` (stereo not drawn) [Example 26, [1S-[1α(4R*,5S*),3α,4β,5α,6α(2E,4R*,6R*),7β]] 1-(4-Acetyloxy-5-methyl-3-methylene-6-phenylhexyl)-4,6-dihydroxy-7-[(methoxycarbonyl)oxy]-2,8-dioxabicyclo[3.2.1]octane-3,4,5-tricarboxylic acid, 6-(4,6-dimethyl-2-octenoate)] showed an IC50 in experiment [2] of less than 100 nM.

`C=C(CC[C@]12O[C@H](C(=O)O)[C@@](O)(C(=O)O)[C@](C(=O)O)(O1)[C@H](OC(=O)NCC)[C@H]2O)[C@@H](OC(C)=O)[C@H](C)Cc1ccccc1` (relative stereo) [Example 66, [1S-[1α(4R*,5S*),3α,4β,5α,6α,7β]] 1-(4-Acetyloxy-5-methyl-3-methylene-6-phenylhexyl)-6-[[(ethylamino)carbonyl]oxy]4,7-dihydroxy-2,8-dioxabicyclo[3.2.1]octane-3,4,5-tricarboxylic acid] gave an IC50 in experiment [2] of less than 100 nM. As for `CCC(CC[C@]12O[C@H](C(=O)O)[C@@](O)(C(=O)O)[C@](C(=O)O)(O1)[C@H](OC(=O)/C=C/[C@@H](C)C[C@@H](C)CC)[C@H]2O)C(=O)[C@H](C)Cc1ccccc1` (relative stereo) [Example 10, [1S-[1α(3R*S*,5S*),3α,4β,5α,6α(2E,4R*,6R*),7β]] 1-(3-Ethyl-5-methyl-4-oxo-6-phenylhexyl)-4,6,7-trihydroxy-2,8-dioxabicyclo[3.2.1]octane-3,4,5-tricarboxylic acid, 6-(4,6-dimethyl-2-octenoate)], the IC50 in experiment [2] is less than 100 nM. As for `C=C(CCC12OC(C(=O)O)C(O)(C(=O)O)C(C(=O)O)(O1)C(OC(=O)CCCCC(C)=O)C2O)C(OC(C)=O)C(C)Cc1ccccc1` (stereo not drawn) [Example 53, [1S-[1α(4R*,5S*),3α,4β,5α,6α,7β]] 1-(4-Acetyloxy-5-methyl-3-methylene-6-phenylhexyl)-4,6,7-trihydroxy-2,8-dioxabicyclo[3.2.1]octane-3,4,5-tricarboxylic acid, 6-(6-oxo-heptanoate)], the IC50 in experiment [2] (setting [3]) was less than 100 nM. `C=C(CC[C@]12O[C@H](C(=O)O)[C@@](O)(C(=O)O)[C@](C(=O)O)(O1)[C@H](OC(=O)CCCC(C)=O)[C@H]2O)[C@@H](OC(C)=O)[C@H](C)Cc1ccccc1` (relative stereo) [Example 51, [1S-[1α(4R*,5S*),3α,4β,5α,6α,7β]] 1-(4-Acetyloxy-5-methyl-3-methylene-6-phenylhexyl)-4,6,7-trihydroxy-2,8-dioxabicyclo[3.2.1]octane-3,4,5-tricarboxylic acid, 6-(5-oxo-hexanoate)] returned an IC50 in experiment [2] of less than 100 nM. For `CCC(C)CC(C)CCC(=O)OC1C(O)C2(CCC(C)C(=O)C(C)Cc3ccccc3)OC(C(=O)O)C(O)(C(=O)O)C1(C(=O)O)O2` (single isomer, unassigned; isomer 1) [isomer 1 in Example 16, [1S-[1α(3R*(S*),5S*),3α,4β,5α,6α(4S*,6R*),7β]] 1-(3,5-Dimethyl-4-oxo-6-phenylhexyl)-4,6,7-trihydroxy-2,8-dioxabicyclo[3.2.1]octane-3,4,5-tricarboxylic acid, 6-(4,6-dimethyloctanoate), 3,4,5-tripotassium salt], in experiment [2] (setting [3]), the IC50 was less than 100 nM.

`C=C(CC[C@]12O[C@H](C(=O)O)[C@@](O)(C(=O)O)[C@](C(=O)O)(O1)[C@H](OC(=O)/C=C/[C@@H](C)C[C@@H](C)CC)[C@H]2O)C(=O)[C@H](C)Cc1ccccc1` [Example 3, [1S-[1α(5S^*),3α,4β,5α,6α(2E,4R^*,6R^*),7β]] 1-(5-Methyl-3-methylene-4-oxo-6-phenylhexyl)-4,6,7-trihydroxy-2,8-dioxabicyclo[3.2.1]octane-3,4,5-tricarboxylic acid, 6-(4,6-dimethyl-2-octenoate)] yielded an IC50 in experiment [2] of less than 100 nM. Regarding `CCC(C)CC(C)CCC(=O)OC1C(O)C2(CCC(=O)C(O)C(C)Cc3ccccc3)OC(C(=O)O)C(O)(C(=O)O)C1(C(=O)O)O2` (stereo not drawn) [Example 17, [1S-[1α(4R*,5S*),3α,4β,5α,6α(4S*,6R*),7β]] 1-(4-Hydroxy-5-methyl-3-oxo-6-phenylhexyl)-4,6,7-trihydroxy-2,8-dioxobicyclo[3.2.1]octane-3,4,5-tricarboxylic acid, 6-(4,6-dimethyloctanoate)], in experiment [2], the IC50 is less than 100 nM. `CC[C@H](C)C[C@H](C)CCC(=O)O[C@@H]1[C@@H](O)[C@@]2(C/C=C(\C)[C@@H](O)[C@H](C)Cc3ccccc3)O[C@H](C(=O)O)[C@@](O)(C(=O)O)[C@]1(C(=O)O)O2` (relative stereo) [Example 14, [1S-[1α[(E),4R*,5S*],3α,4β,5α,6α(4S*,6R*),7β]] 1-(3,5-Dimethyl-4-hydroxy-6-phenyl-2-hexenyl)-4,6,7-trihydroxy-2,8-dioxabicyclo[3.2.1]octane-3,4,5-tricarboxylic acid, 6-(4,6-dimethyloctanoate)] showed an IC50 in experiment [2] of less than 100 nM. For `C=C(CC[C@]12O[C@H](C(=O)O)[C@@](O)(C(=O)O)[C@](C(=O)O)(O1)[C@H](OC(=O)OC)[C@H]2O)[C@@H](OC(C)=O)[C@H](C)Cc1ccccc1` (relative stereo) [Example 56, [1S-[1α(4R*,5S*),3α,4β,5α,6α,7β]] 1-(4-Acetyloxy-5-methyl-3-methylene-6-phenylhexyl)-4,7-dihydroxy-6-[(methoxycarbonyl)oxy]-2,8-dioxabicyclo[3.2.1]octane-3,4,5-tricarboxylic acid], in experiment [2], the IC50 is less than 100 nM. Turning to `CCC(C)CC(C)/C=C/C(=O)OC1C(O)C2(CCC(C)C(O)C(C)Cc3ccccc3)OC(C(=O)O)C(O)(C(=O)O)C1(C(=O)O)O2` (single isomer, unassigned) [Example 8, [1S-[1α[3R*(S*),4R*(S*),5S*],3α,4β,5α,6α(2E,4R*,6R*),7β]] 1-(4-Hydroxy-3,5-dimethyl-6-phenylhexyl)-4,6,7-trihydroxy-2,8-dioxabicyclo[3.2.1]octane-3,4,5-tricarboxylic acid, 6-(4,6-dimethyl-2-octenoate), isomer 3 and isomer 4], the IC50 in experiment [2] (setting [3]) is less than 100 nM.

(Values after patent EP0497091A1, “Bridged cyclic ketal derivatives” (GLAXO GROUP LIMITED, priority 1991, dated 1992).)
